From publication PMC6364417, “Kinase inhibitor library screening identifies synergistic drug combinations effective in sensitive and resistant melanoma cells” (Journal of Experimental & Clinical Cancer Research : CR, 2019)

Experiments:
Test in all cases: Kinase inhibitor library screening, PrestoBlue cell viability, 1 or 10 μM, 72 h
501Mel cells (parental) = system: 501Mel cells (parental)
Summary of the method: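 Sensitive parental cells and their resistant derivatives were exposed to library compounds for 72 h. Values represent viability as a percentage of untreated cells.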

[1] = system: 501Mel-GP cells (Dabrafenib-resistant)
[2] = system: 501Mel-XP cells (Vemurafenib-resistant)
A375 cells (parental) = conditions: for cell viability (kinase inhibitor library screening): in %
[3] = system: A375-GP cells (Dabrafenib-resistant); conditions: for cell viability (kinase inhibitor library screening): in %
[4] = system: A375-XP cells (Vemurafenib-resistant); conditions: for cell viability (kinase inhibitor library screening): in %
IGR37 cells (parental) = system: IGR37 cells (parental)
[5] = system: IGR37-GP cells (Dabrafenib-resistant)
[6] = system: IGR37-XP cells (Vemurafenib-resistant)

`O=C(NCc1ccccc1)c1csc(Nc2ccncn2)n1` [Thiazovivin] was tested, and the “cell viability (kinase inhibitor library screening)” value (501Mel cells (parental); 501Mel Parental, 1μΜ, in %) was 107.2, the “cell viability (kinase inhibitor library screening)” value (501Mel cells (parental); 501Mel Parental, 10μΜ, in %) was 76.8 and the “cell viability (kinase inhibitor library screening)” value ([1]; 501Mel GP, 1μΜ, in %) was 104.3. The “cell viability (kinase inhibitor library screening)” value ([1]; 501Mel GP, 10μΜ, in %) was 43.8, the “cell viability (kinase inhibitor library screening)” value ([2]; 501Mel XP, 10μΜ, in %) was 28.9 and the “cell viability (kinase inhibitor library screening)” value (A375 cells (parental); A375 Parental, 1μΜ) was 103.7. The “cell viability (kinase inhibitor library screening)” value (A375 cells (parental); A375 Parental, 10μΜ) was 81.8, the “cell viability (kinase inhibitor library screening)” value ([3]; A375 GP, 1μΜ) was 96.7 and the “cell viability (kinase inhibitor library screening)” value ([3]; A375 GP, 10μΜ) was 87.9. For the same molecule, the “cell viability (kinase inhibitor library screening)” value ([4]; A375 XP, 10μΜ) was 107.7, the “cell viability (kinase inhibitor library screening)” value (IGR37 cells (parental); IGR37 Parental, 1μΜ, in %) was 97.5 and the “cell viability (kinase inhibitor library screening)” value (IGR37 cells (parental); IGR37 Parental, 10μΜ, in %) was 89.5. The “cell viability (kinase inhibitor library screening)” value ([5]; IGR37 GP, 1μΜ, in %) was 92.4, the “cell viability (kinase inhibitor library screening)” value ([5]; IGR37 GP, 10μΜ, in %) was 93.5 and the “cell viability (kinase inhibitor library screening)” value ([6]; IGR37 XP, 1μΜ, in %) was 98.5. For the same molecule, the “cell viability (kinase inhibitor library screening)” value ([6]; IGR37 XP, 10μΜ, in %) was 87.0.

For `O=c1sn(-c2cccc3ccccc23)c(=O)n1Cc1ccccc1` [Tideglusib], the viability at 1 µM (501Mel cells (parental); Homo sapiens, 72 h, read-out: cell viability, 501Mel Parental, 1μΜ) was 110%, the viability at 10 µM (501Mel cells (parental); Homo sapiens, 72 h, read-out: cell viability, 501Mel Parental, 10μΜ) was 105% and the viability at 1 µM ([1]; Homo sapiens, 72 h, read-out: cell viability, 501Mel GP, 1μΜ) was 102%. It also gave a viability at 10 µM ([1]; Homo sapiens, 72 h, read-out: cell viability, 501Mel GP, 10μΜ) of 91.6%, a viability at 1 µM ([2]; Homo sapiens, 72 h, read-out: cell viability, 501Mel XP, 1μΜ) of 98.8% and a viability at 10 µM ([2]; Homo sapiens, 72 h, read-out: cell viability, 501Mel XP, 10μΜ) of 90.4%. For the same molecule, the viability at 1 µM (A375 cells (parental); Homo sapiens, A-375, 72 h, read-out: cell viability, A375 Parental, 1μΜ) was 95.4%, the viability at 10 µM (A375 cells (parental); Homo sapiens, A-375, 72 h, read-out: cell viability, A375 Parental, 10μΜ) was 97.4% and the viability at 1 µM ([3]; Homo sapiens, A-375, 72 h, read-out: cell viability, A375 GP, 1μΜ) was 98.4%. For the same molecule, the viability at 10 µM ([3]; Homo sapiens, A-375, 72 h, read-out: cell viability, A375 GP, 10μΜ) was 97.5%, the viability at 1 µM ([4]; Homo sapiens, A-375, 72 h, read-out: cell viability, A375 XP, 1μΜ) was 105% and the viability at 10 µM ([4]; Homo sapiens, A-375, 72 h, read-out: cell viability, A375 XP, 10μΜ) was 108%. For the same molecule, the viability at 1 µM (IGR37 cells (parental); Homo sapiens, IGR-37, 72 h, read-out: cell viability, IGR37 Parental, 1μΜ) was 103%, the viability at 10 µM (IGR37 cells (parental); Homo sapiens, IGR-37, 72 h, read-out: cell viability, IGR37 Parental, 10μΜ) was 99.7% and the viability at 1 µM ([5]; Homo sapiens, IGR-37, 72 h, read-out: cell viability, IGR37 GP, 1μΜ) was 94.6%. It also gave a viability at 10 µM ([5]; Homo sapiens, IGR-37, 72 h, read-out: cell viability, IGR37 GP, 10μΜ) of 95.9%, a viability at 1 µM ([6]; Homo sapiens, IGR-37, 72 h, read-out: cell viability, IGR37 XP, 1μΜ) of 96.4% and a viability at 10 µM ([6]; Homo sapiens, IGR-37, 72 h, read-out: cell viability, IGR37 XP, 10μΜ) of 74.1%.

`COc1ccc2cc(-c3nc(-c4ccc([S+](C)[O-])cc4)[nH]c3-c3ccncc3)ccc2c1` (centres unmarked) [Tie2 kinase inhibitor] was tested, and the “cell viability (kinase inhibitor library screening)” value (501Mel cells (parental); 501Mel Parental, 1μΜ, in %) was 96.1, the “cell viability (kinase inhibitor library screening)” value (501Mel cells (parental); 501Mel Parental, 10μΜ, in %) was 90.5 and the “cell viability (kinase inhibitor library screening)” value ([1]; 501Mel GP, 1μΜ, in %) was 107.0. For the same molecule, the “cell viability (kinase inhibitor library screening)” value ([1]; 501Mel GP, 10μΜ, in %) was 87.5, the “cell viability (kinase inhibitor library screening)” value ([2]; 501Mel XP, 1μΜ, in %) was 96.5 and the “cell viability (kinase inhibitor library screening)” value ([2]; 501Mel XP, 10μΜ, in %) was 64.5. For the same molecule, the “cell viability (kinase inhibitor library screening)” value (A375 cells (parental); A375 Parental, 10μΜ) was 96.4, the “cell viability (kinase inhibitor library screening)” value ([3]; A375 GP, 1μΜ) was 96.7 and the “cell viability (kinase inhibitor library screening)” value ([3]; A375 GP, 10μΜ) was 82.6. For the same molecule, the “cell viability (kinase inhibitor library screening)” value ([4]; A375 XP, 10μΜ) was 97.1, the “cell viability (kinase inhibitor library screening)” value (IGR37 cells (parental); IGR37 Parental, 10μΜ, in %) was 103.5 and the “cell viability (kinase inhibitor library screening)” value ([5]; IGR37 GP, 1μΜ, in %) was 94.1. The “cell viability (kinase inhibitor library screening)” value ([6]; IGR37 XP, 10μΜ, in %) was 62.0.

With `CCC(=O)N1CCN(c2ccc(-n3c(=O)ccc4cnc5ccc(-c6cnc7ccccc7c6)cc5c43)cc2C(F)(F)F)CC1` [Torin 1] the “Cell viability in kinase inhibitor library screening, 501Mel Parental, 1μΜ” value (501Mel cells (parental); 501Mel Parental, 1μΜ, 72 h, in %) was 15.1, the “Cell viability in kinase inhibitor library screening, 501Mel Parental, 10μΜ” value (501Mel cells (parental); 501Mel Parental, 10μΜ, 72 h, in %) was 3.3 and the “Cell viability in kinase inhibitor library screening, 501Mel GP, 1μΜ” value ([1]; 501Mel GP, 1μΜ, 72 h, in %) was 20.9. For the same molecule, the “Cell viability in kinase inhibitor library screening, 501Mel GP, 10μΜ” value ([1]; 501Mel GP, 10μΜ, 72 h, in %) was 10.6, the “Cell viability in kinase inhibitor library screening, 501Mel XP, 1μΜ” value ([2]; 501Mel XP, 1μΜ, 72 h, in %) was 14.1 and the “Cell viability in kinase inhibitor library screening, 501Mel XP, 10μΜ” value ([2]; 501Mel XP, 10μΜ, 72 h, in %) was 2.6. For the same molecule, the “Cell viability in kinase inhibitor library screening, A375 Parental, 10μΜ” value (A375 cells (parental); A375 Parental, 10μΜ, 72 h) was 7.2, the “Cell viability in kinase inhibitor library screening, A375 Parental, 1μΜ” value (A375 cells (parental); A375 Parental, 1μΜ, 72 h) was 20.5 and the “Cell viability in kinase inhibitor library screening, A375 GP, 1μΜ” value ([3]; A375 GP, 1μΜ, 72 h) was 22.1. The “Cell viability in kinase inhibitor library screening, A375 GP, 10μΜ” value ([3]; A375 GP, 10μΜ, 72 h) was 6.9, the “Cell viability in kinase inhibitor library screening, A375 XP, 1μΜ” value ([4]; A375 XP, 1μΜ, 72 h) was 20.4 and the “Cell viability in kinase inhibitor library screening, A375 XP, 10μΜ” value ([4]; A375 XP, 10μΜ, 72 h) was 13.4. For the same molecule, the “Cell viability in kinase inhibitor library screening, IGR37 Parental, 1μΜ” value (IGR37 cells (parental); IGR37 Parental, 1μΜ, 72 h, in %) was 23.8, the “Cell viability in kinase inhibitor library screening, IGR37 Parental, 10μΜ” value (IGR37 cells (parental); IGR37 Parental, 10μΜ, 72 h, in %) was 10.7 and the Cell viability in kinase inhibitor library screening, IGR37 GP, 10μΜ ([5]; IGR37 GP, 10μΜ, 72 h) was 12.5%. For the same molecule, the “Cell viability in kinase inhibitor library screening, IGR37 GP, 1μΜ” value ([5]; IGR37 GP, 1μΜ, 72 h, in %) was 40.0, the Cell viability in kinase inhibitor library screening, IGR37 XP, 10μΜ ([6]; IGR37 XP, 10μΜ, 72 h) was 5.2% and the “Cell viability in kinase inhibitor library screening, IGR37 XP, 1μΜ” value ([6]; IGR37 XP, 1μΜ, 72 h, in %) was 30.3.
